Reference: paper PMC7154665, “Triple‐Helix‐Stabilizing Effects in Collagen Model Peptides Containing PPII‐Helix‐Preorganized Diproline Modules” (Angewandte Chemie (International Ed. in English), 2020)

Key:
HSP47 = biological target: T1, HSP47 (Canis lupus familiaris, UniProt A0A8I3N7V2); test: HSP47 binding by biolayer interferometry (BLI); parameters: species or system canine; settings: Table S7; BLI curve fitting; KD = koff/kon; errors by propagation of uncertainty; read-out: KD (with error)
T1 construct: coding for residues 36LSP…RDEL418; inferred from Ni-NTA purification with imidazole elution; made in house; host or cells: E. coli BL21 (DE3)
T1 sequence (A0A8I3N7V2 36-418): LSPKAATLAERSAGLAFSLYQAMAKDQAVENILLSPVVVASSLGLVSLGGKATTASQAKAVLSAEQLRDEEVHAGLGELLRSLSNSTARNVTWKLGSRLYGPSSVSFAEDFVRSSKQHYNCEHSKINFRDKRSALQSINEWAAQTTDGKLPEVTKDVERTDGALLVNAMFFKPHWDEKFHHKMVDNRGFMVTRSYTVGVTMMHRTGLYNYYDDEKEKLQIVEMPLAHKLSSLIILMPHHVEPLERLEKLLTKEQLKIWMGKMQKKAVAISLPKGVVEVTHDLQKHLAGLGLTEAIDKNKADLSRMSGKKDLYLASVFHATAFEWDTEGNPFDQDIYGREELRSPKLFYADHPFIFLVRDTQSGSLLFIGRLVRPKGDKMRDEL
Description: (1 picture or pasted object on this page, not shown here) […]

[1] = CD thermal denaturation of collagen model peptide triple helices (transition temperature); type: physicochemical; settings: for T m (figure legends and text) / T m of the corresponding CMPs: CD denaturation at 225 nm; for T m (figure legends and text): PBS-buffer, 12 °C h-1 heating rate, * substitution-site altered, ** arginine-free peptides; for T m of the corresponding CMPs: Table 2, CMP Ac‐(PPG)5‐PRG‐PPG‐[XY]G‐(PPG)3‐NH2, PBS, 12 °C h-1; for T m: triple-helix transition temperature, CD ellipticity at 225 nm, 60 µM peptide in PBS (10 mM Na2HPO4, 10 mM NaH2PO4, 150 mM NaCl, pH 7.0), 4 to 70 °C, heating rate 12 °C h-1, two-state fit, error ±1 °C
Experimental: For all prepared model peptides, CD spectra were recorded in phosphate‐buffered saline (after incubation for […] at 4 °C). […] The curves were fitted to assess triple‐helical stability by the transition temperature (T m, ±1 °C error) in a standardized fashion (see Table 1 and the Supporting Information). Selected denaturation curves are depicted in Figure 4.
CD spectra and Thermal Denaturation Experiments
Experimental setup - Vacuum-dried peptides were dissolved in phosphate-buffered saline (10 mM Na2HPO4, 10 mM NaH2PO4,
150 mM NaCl, pH = 7.0) and the solutions (60 µM peptide) were incubated at 4 °C for at least 48 h for trimerization. CD
measurements were performed on a Jasco J-715 spectropolarimeter using a quartz cuvette (Hellma Analytics, 1 mm path length) and
To study thermal transitions the ellipticity at 225 nm was monitored while increasing the temperature from 4 to
70 °C at a rather slow heating rate of 12 °C h-1 which was controlled electronically (Jasco PTC-348 WI Peltier element). According to
the literature this heating rate still corresponds to non-equilibrium conditions, however, the generated data can be used for internal
Data interpretation - For Tm-determination a two-state-model was employed in which three peptide chains combine to a triple helix
assuming a previously reported mathematical model (vide infra).[7][8] Constants were set (c = 0.00006, R = 8.31) and auxiliary
variables (P, U, V, K) were used to describe the temperature dependence of the folded fraction F. Thermal transition curves were
fitted by optimizing the parameters θmin, θmax, ΔH, and Tm using the Generalized Reduced Gradient algorithm implemented in the
solver tool of MS Excel.[9]. An error of ±1.0 °C was estimated for the resulting Tm values by repeating denaturation experiments.

| T m (figure legends and text) [1] [°C] | T m [1] [°C] | Compound | further results |
| --- | --- | --- | --- |
| – | – | N=C(N)NCCC[C@H](NC(=O)[C@@H]1CCCN1C(=O)CNC(=O)[C@@H]1CCCN1C(=O)[C@@H]1CCCN1C(=O)CNC(=O)[C@@H]1CCCN1C(=O)[C@@H]1CCCN1C(=O)CNC(=O)[C@@H]1CCCN1C(=O)[C@@H]1CCCN1C(=O)CNC(=O)[C@@H]1CCCN1C(=O)[C@@H]1CCCN1C(=O)CNC(=O)[C@@H]1CCCN1C(=O)[C@@H]1CCCN1C(=O)CCC(=O)NCCOCCOCCNC(=O)CCCC[C@@H]1SC[C@@H]2NC(=O)N[C@@H]21)C(=O)NCC(=O)N1CCC[C@H]1C(=O)N1CCC[C@H]1C(=O)NCC(=O)N1CCC[C@H]1C(=O)N1CCC[C@H]1C(=O)NCC(=O)N1CCC[C@H]1C(=O)N1CCC[C@H]1C(=O)NCC(=O)N1CCC[C@H]1C(=O)N1CCC[C@H]1C(=O)NCC(=O)N1CCC[C@H]1C(=O)N1CCC[C@H]1C(=O)NCC(N)=O [PP] | Kd (HSP47): 370.3 ± 1.8 nM |
| 49.8 | – | COC(=O)[C@@H]1CC(O)CN1C(=O)[C@@H]1CCCN1C(C)=O (stereo partly drawn) [ProHyp] | T m of the corresponding CMPs [1]: 49.8 °C |
| 44.4 | – | Ac-PPG-PPG-PPG-PPG-PPG-PPG-PPG-[H2ProM2]G-PPG-PPG-PPG-NH2 [H2-ProM2**] | – |
| 46.9 | – | Ac-PPG-PPG-PPG-PPG-PPG-PRG-PPG-OOG-PPG-PPG-PPG-NH2 [HypHyp] | – |
| 44.0 | – | Ac-PPG-PPG-PPG-PPG-PPG-PRG-PPG-OPG-PPG-PPG-PPG-NH2 [HypPro] | – |
| 44 | – | Ac‐(EtO)2‐ProM1‐OMe | T m of the corresponding CMPs [1]: 44.5 °C |
| – | – | Ac‐(EtO)2‐ProM2‐OMe | T m of the corresponding CMPs [1]: 38.9 °C; ΔT m ([1]; with regard to the non‐functionalized system (ProM2 series)): −6 °C |
| – | 44.6 | Ac‐(PPG)3‐H2‐ProM2G‐PPG‐PRG‐(PPG)5‐NH2 [Entry 15] | – |
| – | 40.5 | Ac‐(PPG)3‐ProM1G‐PPG‐PRG‐(PPG)5‐NH2 [Entry 14] | – |
| 44.5 | 44.5 | Ac‐(PPG)5‐PRG‐PPG‐(EtO)2‐ProM1G‐(PPG)3‐NH2 [Entry 8] | – |
| 38.9 | 38.9 | Ac‐(PPG)5‐PRG‐PPG‐(EtO)2‐ProM2G‐(PPG)3‐NH2 [Entry 13] | – |
| 37.9 | 37.9 | Ac‐(PPG)5‐PRG‐PPG‐(HO)2‐ProM2G‐(PPG)3‐NH2 [Entry 11] | – |
| 43.6 | 43.6 | Ac‐(PPG)5‐PRG‐PPG‐(MeO)2‐ProM1G‐(PPG)3‐NH2 [Entry 7] | – |
| 40.2 | 40.2 | Ac‐(PPG)5‐PRG‐PPG‐(MeO)2‐ProM2G‐(PPG)3‐NH2 [Entry 12] | – |
| 43.0 | 43.0 | Ac‐(PPG)5‐PRG‐PPG‐HO‐ProM1G‐(PPG)3‐NH2 [Entry 5] | – |
| – | 49.8 | Ac‐(PPG)5‐PRG‐PPG‐ProHypG‐(PPG)3‐NH2 [Entry 2] | – |
| – | 39.3 | Ac‐(PPG)5‐PRG‐PPG‐ProM1G‐(PPG)3‐NH2 [Entry 3] | – |
| 39.3 | – | Ac‐ProM1‐OMe | T m of the corresponding CMPs [1]: 39.3 °C; ΔT m ([1]; in comparison to reference peptide Ac‐(PPG)5‐PRG‐(PPG)5‐NH2): −6 °C |

| Compound | T m (figure legends and text) [1] [°C] | T m [1] [°C] | further results |
| --- | --- | --- | --- |
| Ac-PPG-PPG-PPG-PPG-PPG-PPG-PPG-PPG-PPG-PPG-PPG-NH2 [ProPro**] | 45.9 | – | – |
